Source: patent US7169932B2 (priority 2001, dated 2007)
pKi: −log10 of the molar value. Where two headings read alike, the source gives them in different places.

Tests used:
[1] = system: HIV-1 NL4–3 or HIV-1 NL4–3(184V/L90M); experiment: Susceptibility assay, p24 ELISA in infected MT-2 cells; assay type: cell-based; conditions: Human immunodeficiency virus 1, MT2, 72 h, read-out: EC50 or IC50 (mM)
Description: T-cell lines, CEM-SS, and MT-2, and viruses HIV-1 RF and HIV-1 NL4–3 (pNL4–3) were obtained from the National Institutes of Health (AIDS Research and Reference Reagent Program, Bethesda, Md.).
Compounds were tested in phenotypic susceptibility assays at Virologic, Inc., (See Petropoulos C. J., Parkin N. T., Limoli K. L., Lie Y. S., Wrin T., Huang W., Tian H., Smith D., Winslow G. A., Capon D J, Whitcomb J M. 2000, “A novel phenotypic drug susceptibility assay for human immunodeficiency virus type 1,” Antimicrob Agents Chemother 44(4):920–928) or using the assay described here. MT-2 cells were infected with either HIV-1 NL4–3 or HIV-1 NL4–3(184V/L90M) and incubated in the presence of serial 0.5 log dilutions of test compounds. Three days later, culture supernatants were collected and virus production, as determined by p24 ELISA, was assayed. Percent inhibition was calculated as p24 concentration in compound-treated samples as compared to infected, compound-free controls. Inhibition of viral replication is determined by measuring reduction in HIV p24 present in the culture supernatant, using a Beckman-Coulter p24 HIV-1 Ag EIA kit and following the supplied protocol. Absorbance is read on a MRX microplate reader (Dynex Technologies). The EC50 was calculated as the concentration of compound that effected a decrease in the p24 production by infected, compound-treated cells to 50% of that produced by infected, compound-free cells.

[2] = target: T1, HIV-1 protease (Q7S) (Human immunodeficiency virus type 1 group M subtype B, UniProt P04585, Q495S); experiment: HIV-1 Protease RET Assay; assay type: biochemical; conditions: RET assay, Q7S enzyme, pH 4.8, 37 C; for Ki: Ave. Ki (nM)
T1 construct: made in house
Method in brief: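 Ki values came from a RET assay on refolded Q7S protease (2 nM active dimer) cleaving RE(EDANS)SQNYPIVQK(DABCYL)R at 5 μM, read at ex 340/em 490 nm. Reactions ran 12 min at 37 C in 0.1M sodium acetate pH 4.8, 1M NaCl, 5 mM DTT, 10% DMSO; curves were fit with the Morrison tight-binding equation.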

[3] = system: HIV-1; experiment: Cytopathic Effect (CPE) Inhibition Assay (XTT dye reduction); assay type: cell-based; conditions: Human immunodeficiency virus 1, 144 h, read-out: Ave CPE EC50 (mM), protection of infected cells, six days, XTT
Method in brief: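 CEM-SS or MT-2 cells infected with HIV-1 RF or NL4–3 (moi 0.025–0.819), 2×10^4 cells/well, incubated six days with half-log compound dilutions. Viability read by XTT formazan at 450 nm; EC50 is the concentration restoring 50% of uninfected-control formazan, CC50 from uninfected treated cells, therapeutic index CC50/EC50.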

Compound: Cc1ccccc1CN(C)C(=O)[C@H]1N(C(=O)[C@@H](O)[C@H](Cc2ccccc2)NC(=O)c2cccc(O)c2C)CSC1(C)C [Example A7, 3-[2-Hydroxy-3-(3-hydroxy-2-methyl-benzoylamino)-4-phenyl-butyryl]-5,5-dimethyl-thiiazolidine-4-carboxylic acid methyl-(2-methyl-benzyl)-amide]
- EC50 [1]: 0.832 µM
- Ki [2]: 0.49 nM
- EC50 [3]: 0.104 µM

Compound: Cc1c(O)cccc1C(=O)N[C@@H](Cc1ccccc1)[C@H](O)C(=O)N1CSC(C)(C)[C@H]1C(=O)NCc1ccccc1O [Example A44, (R)-3-((2S,3S)-2-Hydroxy-3-{[1-(3-hydroxy-2-methyl-phenyl)-methanoyl]-amino}-4-phenyl-butanoyl)-5,5-dimethyl-thiazolidine-4-carboxylic acid 2-hydroxy-benzylamide]
- EC50 [1]: 0.472 µM
- Ki [2]: 0.14 nM
- EC50 [3]: 0.022 µM

Compound: Cc1c(O)cccc1C(=O)N[C@@H](Cc1ccccc1)[C@H](O)C(=O)N1CSC(C)(C)[C@H]1C(=O)NCc1cccc(O)c1 [Example A42, (R)-3-((2S,3S)-2-Hydroxy-3-{[1-(3-hydroxy-2-methyl-phenyl)-methanoyl]-amino}-4-phenyl-butanoyl)-5,5-dimethyl-thiazolidine-4-carboxylic acid 3-hydroxy-benzylamide]
- EC50 [1]: 0.307 µM
- Ki [2]: 0.23 nM
- EC50 [3]: 0.126 µM

Compound: C/C=C/CNC(=O)[C@H]1N(C(=O)[C@@H](O)[C@H](Cc2ccccc2)NC(=O)c2cccc(O)c2C)CSC1(C)C [Example A38, (R)-3-((2S,3S)-2-Hydroxy-3-{[1-(3-hydroxy-2-methyl-phenyl)-methanoyl]-amino}-4-phenyl-butanoyl)-5,5-dimethyl-thiazolidine-4-carboxylic acid (E)-but-2-enylamide]
- EC50 [1]: 0.401 µM
- Ki [2]: 0.17 nM
- EC50 [3]: 0.078 µM

Compound: C=CCNC(=O)[C@H]1N(C(=O)[C@@H](O)[C@H](Cc2ccccc2)NC(=O)c2cc(C)cc(O)c2C)CSC1(C)C [Example D4, (R)-3-[(2S, 3S)-2-Hydroxy-3-(3-hydroxy-2,5-dimethyl-benzoylamino)-4-phenyl-butyryl]-5,5-dimethyl-thiazolidine-4-carboxylic acid allylamide]
- EC50 [1]: 1.95 µM
- pKi ([2]; read-out: Ave. Ki): 9.15
- EC50 [3]: 0.016 µM

Compound: Cc1c(O)cccc1C(=O)N[C@@H](Cc1ccccc1)[C@H](O)C(=O)N1CSC(C)(C)[C@H]1C(=O)NCc1c(F)cccc1C(F)(F)F [Example A24, (R)-3-((2S,3S)-2-Hydroxy-3-{[1-(3-hydroxy-2-methyl-phenyl)-methanoyl]-amino}-4-phenyl-butanoyl)-5,5-dimethyl-thiazolidine-4-carboxylic acid fluoro-trifluoromethyl-benzylamide]
- EC50 [1]: 0.831 µM
- Ki [2]: 0.18 nM
- EC50 [3]: 0.104 µM

Compound: C/C=C(\C)CNC(=O)[C@H]1N(C(=O)[C@@H](O)[C@H](Cc2ccccc2)NC(=O)c2cccc(O)c2C)CSC1(C)C [Example A35, (R)-3-((2S,3S)-2-Hydroxy-3-{[1-(3-hydroxy-2-methyl-phenyl)-methanoyl]-amino}-4-phenyl-butanoyl)-5,5-dimethyl-thiazolidine-4-carboxylic acid ((E)-2-methyl-but-2-enyl)-amide]
- EC50 [1]: 0.063 µM
- Ki [2]: < 0.1 nM
- EC50 [3]: 0.017 µM

Compound: CC(C)=CCNC(=O)[C@H]1N(C(=O)[C@@H](O)[C@H](Cc2ccccc2)NC(=O)c2cccc(O)c2C)CSC1(C)C [Example A32, (R)-3-((2S,3S)-2-Hydroxy-3-{[1-(3-hydroxy-2-methyl-phenyl)-methanoyl]-amino}-4-phenyl-butanoyl)-5,5-dimethyl-thiazolidine-4-carboxylic acid (3-methyl-but-2-enyl)-amide]
- EC50 [1]: 0.486 µM
- Ki [2]: < 0.1 nM
- EC50 [3]: 0.045 µM

Compound: Cc1ccccc1CNC(=O)C1N(C(=O)C(O)C(Cc2ccccc2)NC(=O)c2cccc(C)c2C)CSC1(C)C (stereo not drawn) [Example B17, 3-[3-(2,3-Dimethyl-benzoylamino)-2-hydroxy-4-phenyl-butyryl]-5,5-dimethyl-thiazolidine-4-carboxylic acid 2-methyl-benzylamide]
- EC50 [1]: 1.58 µM
- Ki [2]: 0.42 nM
- EC50 [3]: 0.534 µM
